In one assay the target is T1, AKR1C3 (Homo sapiens, UniProt P42330).
T1 sequence (P42330 1-323): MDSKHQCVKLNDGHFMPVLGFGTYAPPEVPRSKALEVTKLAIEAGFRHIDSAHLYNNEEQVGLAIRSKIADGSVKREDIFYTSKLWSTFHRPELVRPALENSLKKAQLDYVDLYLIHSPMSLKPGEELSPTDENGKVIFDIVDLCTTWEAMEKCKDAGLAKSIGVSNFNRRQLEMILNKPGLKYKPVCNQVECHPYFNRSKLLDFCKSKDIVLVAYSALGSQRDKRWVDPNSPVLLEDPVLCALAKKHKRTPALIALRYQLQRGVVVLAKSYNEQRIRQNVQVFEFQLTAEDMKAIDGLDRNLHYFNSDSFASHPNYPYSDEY
Description: Spectrophotometric inhibition assay, 1-acenaphthenol oxidation with NAD+. In kind it is biochemical. Particulars: pH 9.0, screening at 400 μM.

The next assay deals with T2, AKR1C2 (Homo sapiens, UniProt P52895).
T2 sequence (P52895 1-323): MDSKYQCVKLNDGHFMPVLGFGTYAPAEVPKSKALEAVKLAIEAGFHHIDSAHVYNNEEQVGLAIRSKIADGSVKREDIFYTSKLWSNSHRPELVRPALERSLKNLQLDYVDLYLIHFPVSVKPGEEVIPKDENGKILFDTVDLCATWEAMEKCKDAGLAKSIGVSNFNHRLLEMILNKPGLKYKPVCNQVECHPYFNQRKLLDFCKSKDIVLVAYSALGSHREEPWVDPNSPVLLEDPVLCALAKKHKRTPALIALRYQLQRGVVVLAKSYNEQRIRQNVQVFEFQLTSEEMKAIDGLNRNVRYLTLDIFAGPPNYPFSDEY
The assay is described as above. In kind it is biochemical. Particulars: pH 9.0, screening at 400 μM.

Another assay has as its system AKR1C1-3. Description: Isoform profile across the AKR1C enzymes. In kind it is biochemical, human. Particulars: 1-acenaphthenol oxidation, NAD+, pH 9.0.
Another assay deals with T3, AKR1C1 (Homo sapiens, UniProt Q04828).
T3 sequence (Q04828 1-323): T2 sequence (P52895 1-323) with V38T, H47R, V54L, S87C, M151V, H170R, L172Q
Nature of the assay: Spectrophotometric inhibition assay, 1-acenaphthenol oxidation with NAD+. The assay is classed as biochemical. Particulars: pH 9.0, screening at 400 μM.

From publication PMC3470935 (Journal of medicinal chemistry, 2012) come the findings set out here.

Each structure is given as a SMILES string. Where a chain is given by its changes, count along the chain named.

For the compound `O=C(O)c1cc(NC(=O)c2ccccc2F)ccc1O` [Compound 1, 5-(2-fluorobenzamido)salicylic acid], the “inhibition of AKR1C3 (in words)” value at AKR1C3 is reported as “moderate”.
For `Cc1cc(C(=O)Nc2ccc(O)c(C(=O)O)c2)oc1C` [Compound 3, 5-(4,5-dimethylfuran-2-carboxamido)-salicylic acid], at AKR1C2, the “inhibition of AKR1C2 (in words)” value was “very low inhibition”. The “inhibition profile / isoform selectivity on AKR1C enzymes (in words)” value (“inhibition profile / isoform selectivity” below) in the assay with AKR1C1-3 is listed as “selective AKR1C3 inhibitor”. Besides, the “inhibition of AKR1C1 (in words)” value against AKR1C1 is “no observable inhibition”.
As for `Cc1oc(C(N)=O)cc1COc1ccccc1C(N)=O` [Compound 4, 4-((2-carbamoylphenoxy)methyl)-5-methylfuran-2-carboxamide], at AKR1C2, the “inhibition of AKR1C2 (in words)” value is recorded as “moderate inhibitor”. Besides, the “inhibition profile / isoform selectivity” value in the assay with AKR1C1-3 is listed as “partially selective towards AKR1C1”. Further, the “inhibition of AKR1C3 (in words)” value on AKR1C3 is given as “moderate inhibitor”.
In the case of `NC(=O)c1ccccc1/N=C/c1cccc(O)c1` [Compound 5, 2-(3-hydroxybenzylideneamino)benzamide], in the assay with AKR1C1-3, the “inhibition profile / isoform selectivity” value is “selective AKR1C3 inhibitor”.
Same read-out and setting: the same measure for `NC(=O)c1ccccc1NC(=O)c1ccncc1` [Compound 7]: “low inhibitory effect”; for `Cc1cccc(C(=O)Nc2ccccc2C(N)=O)c1` [Compound 8]: “low inhibitory effect”.
For `Cc1ccc(NC(=O)c2cccnc2)c(C(=O)O)c1` [Compound 10], the “inhibition of AKR1C3 (in words)” value at AKR1C3 is listed as “weak inhibitor”. Also, the “inhibition of AKR1C1 (in words)” value at AKR1C1 is listed as “weak inhibitor”.
Take `O=C(O)c1ccc(CNCc2ccccn2)cc1` [Compound 18]: the “inhibition of AKR1C3 (in words)” value at AKR1C3 is listed as “moderate”.
With `CC(=O)Nc1ccc(C(C#N)c2ccccc2)cc1` (stereo not shown) [Compound 24, N-(4-(cyano(phenyl)methyl)phenyl)acetamide], the “inhibition of AKR1C2 (in words)” value against AKR1C2 is recorded as “moderate inhibitor”.
As to `O=C(CSc1ncnc2[nH]cnc12)Nc1ccccn1` [Compound 25, 2-((9H-purin-6-yl)thio)-N-(pyridin-2-yl)acetamide], the “inhibition profile / isoform selectivity” value in the assay with AKR1C1-3 is recorded as “selective AKR1C1 inhibitor”.
Same read-out and setting: the same measure for `O=C(NCc1cc(=O)[nH]cn1)c1cc2ccccn2n1` [Compound 27, N-((6-oxo-1,6-dihydropyrimidin-4-yl)methyl)pyrazolo[1,5-a]pyridine-2-carboxamide]: “selective AKR1C3 inhibitors”.
